Reference: publication PMC4832243, “Discovery of Potent VEGFR-2 Inhibitors based on Furopyrimidine and Thienopyrimidne Scaffolds as Cancer Targeting Agents” (Scientific Reports, 2016)

Legend:
Type in all cases: cell-based
UO-31 = test: NCI 60 cell line panel (SRB), UO-31; details: Homo sapiens; UO-31, Renal Cancer; single dose of 10 μM; read-out: Cell Growth Percent
MALME-3M = test: NCI 60 cell line panel (SRB), MALME-3M; details: Homo sapiens, Melanoma, single dose of 10 μM, read-out: Cell Growth Percent
OVCAR-3 = test: NCI 60 cell line panel (SRB), OVCAR-3; details: Homo sapiens; OVCAR-3, Ovarian Cancer; single dose of 10 μM; read-out: Cell Growth Percent
MDA-MB-468 = test: NCI 60 cell line panel (SRB), MDA-MB-468; details: Homo sapiens; MDA-MB-468, Breast Cancer; single dose of 10 μM; read-out: Cell Growth Percent
SF-268 = test: NCI 60 cell line panel (SRB), SF-268; details: Homo sapiens; SF-268, CNS Cancer; single dose of 10 μM; read-out: Cell Growth Percent
786-0 = test: NCI 60 cell line panel (SRB), 786-0; details: Homo sapiens; 786-0, Renal Cancer; single dose of 10 μM; read-out: Cell Growth Percent
SW-620 = test: NCI 60 cell line panel (SRB), SW-620; details: Homo sapiens; SW-620, Colon Cancer; single dose of 10 μM; read-out: Cell Growth Percent
NCI-H322M = test: NCI 60 cell line panel (SRB), NCI-H322M; details: Homo sapiens, Non-Small Cell Lung Cancer, single dose of 10 μM, read-out: Cell Growth Percent
NCI-H23 = test: NCI 60 cell line panel (SRB), NCI-H23; details: Homo sapiens; NCI-H23, Non-Small Cell Lung Cancer; single dose of 10 μM; read-out: Cell Growth Percent
SK-MEL-5 = test: NCI 60 cell line panel (SRB), SK-MEL-5; details: Homo sapiens; SK-MEL-5, Melanoma; single dose of 10 μM; read-out: Cell Growth Percent
HOP-92 = test: NCI 60 cell line panel (SRB), HOP-92; details: Homo sapiens; HOP-92, Non-Small Cell Lung Cancer; single dose of 10 μM; read-out: Cell Growth Percent
OVCAR-4 = test: NCI 60 cell line panel (SRB), OVCAR-4; details: Homo sapiens; OVCAR-4, Ovarian Cancer; single dose of 10 μM; read-out: Cell Growth Percent
IGROV1 = test: NCI 60 cell line panel (SRB), IGROV1; details: Homo sapiens, IGROV-1; IGROV1, Ovarian Cancer; single dose of 10 μM; read-out: Cell Growth Percent
CAKI-1 = test: NCI 60 cell line panel (SRB), CAKI-1; details: Homo sapiens; CAKI-1, Renal Cancer; single dose of 10 μM; read-out: Cell Growth Percent
SK-MEL-28 = test: NCI 60 cell line panel (SRB), SK-MEL-28; details: Homo sapiens; SK-MEL-28, Melanoma; single dose of 10 μM; read-out: Cell Growth Percent
CCRF-CEM = test: NCI 60 cell line panel (SRB), CCRF-CEM; details: Homo sapiens, Leukemia, single dose of 10 μM, read-out: Cell Growth Percent
A549/ATCC = test: NCI 60 cell line panel (SRB), A549/ATCC; details: Homo sapiens, Non-Small Cell Lung Cancer, single dose of 10 μM, read-out: Cell Growth Percent
RPMI-8226 = test: NCI 60 cell line panel (SRB), RPMI-8226; details: Homo sapiens; RPMI-8226, Leukemia; single dose of 10 μM; read-out: Cell Growth Percent
HCT-116 = test: NCI 60 cell line panel (SRB), HCT-116; details: Homo sapiens; HCT-116, Colon Cancer; single dose of 10 μM; read-out: Cell Growth Percent
RXF 393 = test: NCI 60 cell line panel (SRB), RXF 393; details: Homo sapiens; RXF 393, Renal Cancer; single dose of 10 μM; read-out: Cell Growth Percent
MOLT-4 = test: NCI 60 cell line panel (SRB), MOLT-4; details: Homo sapiens; MOLT-4, Leukemia; single dose of 10 μM; read-out: Cell Growth Percent
K-562 = test: NCI 60 cell line panel (SRB), K-562; details: Homo sapiens, K562; K-562, Leukemia; single dose of 10 μM; read-out: Cell Growth Percent
KM12 = test: NCI 60 cell line panel (SRB), KM12; details: Homo sapiens; KM12, Colon Cancer; single dose of 10 μM; read-out: Cell Growth Percent
HT29 = test: NCI 60 cell line panel (SRB), HT29; details: Homo sapiens, HT-29; HT29, Colon Cancer; single dose of 10 μM; read-out: Cell Growth Percent
LOX IMVI = test: NCI 60 cell line panel (SRB), LOX IMVI; details: Homo sapiens, Melanoma, single dose of 10 μM, read-out: Cell Growth Percent
NCI-H460 = test: NCI 60 cell line panel (SRB), NCI-H460; details: Homo sapiens; NCI-H460, Non-Small Cell Lung Cancer; single dose of 10 μM; read-out: Cell Growth Percent
SNB-19 = test: NCI 60 cell line panel (SRB), SNB-19; details: Homo sapiens; SNB-19, CNS Cancer; single dose of 10 μM; read-out: Cell Growth Percent
OVCAR-5 = test: NCI 60 cell line panel (SRB), OVCAR-5; details: Homo sapiens; OVCAR-5, Ovarian Cancer; single dose of 10 μM; read-out: Cell Growth Percent
A498 = test: NCI 60 cell line panel (SRB), A498; details: Homo sapiens; A498, Renal Cancer; single dose of 10 μM; read-out: Cell Growth Percent
T-47D = test: NCI 60 cell line panel (SRB), T-47D; details: Homo sapiens, T47D, Breast Cancer, single dose of 10 μM, read-out: Cell Growth Percent
PC-3 = test: NCI 60 cell line panel (SRB), PC-3; details: Homo sapiens; PC-3, Prostate Cancer; single dose of 10 μM; read-out: Cell Growth Percent
BT-549 = test: NCI 60 cell line panel (SRB), BT-549; details: Homo sapiens; BT-549, Breast Cancer; single dose of 10 μM; read-out: Cell Growth Percent
DU-145 = test: NCI 60 cell line panel (SRB), DU-145; details: Homo sapiens; DU-145, Prostate Cancer; single dose of 10 μM; read-out: Cell Growth Percent
NCI-H522 = test: NCI 60 cell line panel (SRB), NCI-H522; details: Homo sapiens; NCI-H522, Non-Small Cell Lung Cancer; single dose of 10 μM; read-out: Cell Growth Percent

Row | SMILES | activity at 10 µM (UO-31) [%] | activity at 10 µM (MALME-3M) [%] | activity at 10 µM (OVCAR-3) [%] | activity at 10 µM (MDA-MB-468) [%] | activity at 10 µM (SF-268) [%] | activity at 10 µM (786-0) [%] | activity at 10 µM (SW-620) [%] | activity at 10 µM (NCI-H322M) [%] | activity at 10 µM (NCI-H23) [%] | activity at 10 µM (SK-MEL-5) [%] | activity at 10 µM (HOP-92) [%] | activity at 10 µM (OVCAR-4) [%] | activity at 10 µM (IGROV1) [%] | activity at 10 µM (CAKI-1) [%] | activity at 10 µM (SK-MEL-28) [%] | activity at 10 µM (CCRF-CEM) [%] | activity at 10 µM (A549/ATCC) [%] | activity at 10 µM (RPMI-8226) [%] | activity at 10 µM (HCT-116) [%] | activity at 10 µM (RXF 393) [%] | further results
1 | O=C(Nc1ccccc1)Nc1ccc(Nc2ncnc3sc4c(c23)CCCC4)cc1 [Compound 20a] | 71.5 | 102 | 103 | 96.8 | 100 | 110 | 106 | 106 | 100 | 97.3 | 100 | 107 | 107 | 100 | 116 | 92.3 | 73.8 | 99.2 | 114 | 102 | activity at 10 µM (MOLT-4): 89.4%; activity at 10 µM (K-562): 99.7%; activity at 10 µM (KM12): 102%; activity at 10 µM (HT29): 96.1%; activity at 10 µM (LOX IMVI): 99.4%; activity at 10 µM (NCI-H460): 104%; activity at 10 µM (SNB-19): 95.9%; activity at 10 µM (OVCAR-5): 119%; activity at 10 µM (A498): 83.3%; activity at 10 µM (T-47D): 100%; activity at 10 µM (PC-3): 89.8%; activity at 10 µM (BT-549): 109%; activity at 10 µM (DU-145): 109%; activity at 10 µM (NCI-H522): 92.9%
2 | COc1cccc(NC(=O)Nc2ccc(Nc3ncnc4sc5c(c34)CCCC5)cc2)c1 [Compound 20c] | 61 | 79.9 | 99.1 | 114 | 99.5 | 100 | 112 | 98.8 | 104 | 92.3 | 118 | 88.8 | 106 | 97 | 93.3 | 94.6 | 78.3 | 102 | 91 | 116 | activity at 10 µM (MOLT-4): 81.3%; activity at 10 µM (K-562): 97.2%; activity at 10 µM (KM12): 89.6%; activity at 10 µM (HT29): 104%; activity at 10 µM (LOX IMVI): 94.4%; activity at 10 µM (NCI-H460): 106%; activity at 10 µM (SNB-19): 95.2%; activity at 10 µM (OVCAR-5): 106%; activity at 10 µM (A498): 91.3%; activity at 10 µM (T-47D): 66.4%; activity at 10 µM (PC-3): 89.6%; activity at 10 µM (BT-549): 85.8%; activity at 10 µM (DU-145): 105%; activity at 10 µM (NCI-H522): 81.2%
3 | O=C(Nc1ccc(Nc2ncnc3sc4c(c23)CCCC4)cc1)Nc1cccc(Cl)c1 [Compound 20d] | 90.9 | 97.9 | 110 | 110 | 106 | 103 | 108 | 104 | 103 | 98.1 | 102 | 101 | 113 | 97.2 | 104 | 97.7 | 74.2 | 106 | 112 | 115 | activity at 10 µM (MOLT-4): 92.3%; activity at 10 µM (K-562): 110%; activity at 10 µM (KM12): 105%; activity at 10 µM (HT29): 87.8%; activity at 10 µM (LOX IMVI): 103%; activity at 10 µM (NCI-H460): 110%; activity at 10 µM (SNB-19): 108%; activity at 10 µM (OVCAR-5): 108%; activity at 10 µM (A498): 86.7%; activity at 10 µM (T-47D): 100%; activity at 10 µM (PC-3): 96%; activity at 10 µM (BT-549): 100%; activity at 10 µM (DU-145): 110%; activity at 10 µM (NCI-H522): 92.1%
4 | O=C(Nc1ccccc1)Nc1ccc(Oc2ncnc3sc4c(c23)CCCC4)cc1 [Compound 21a] | 55.2 | 84.2 | 74.9 | 53.6 | 76.3 | 84.8 | 92 | 99.7 | 66.4 | 67.9 | 78.4 | 55.1 | 87.2 | 83.4 | 86.6 | 64.9 | 67.8 | 50.5 | 67.4 | 72 | activity at 10 µM (MOLT-4): 54%; activity at 10 µM (K-562): 26.1%; activity at 10 µM (KM12): 46.4%; activity at 10 µM (HT29): 74.3%; activity at 10 µM (LOX IMVI): 69.5%; activity at 10 µM (NCI-H460): 70.7%; activity at 10 µM (SNB-19): 63.1%; activity at 10 µM (OVCAR-5): 107%; activity at 10 µM (A498): 56.7%; activity at 10 µM (T-47D): 37.9%; activity at 10 µM (PC-3): 33.4%; activity at 10 µM (BT-549): 63.8%; activity at 10 µM (DU-145): 86.1%; activity at 10 µM (NCI-H522): 15.6%
5 | Cc1cccc(NC(=O)Nc2ccc(Oc3ncnc4sc5c(c34)CCCC5)cc2)c1 [Compound 21b] | 59 | 104 | 63.5 | 87.2 | 72.6 | 87 | 103 | 91.2 | 72.4 | 72.9 | 80.9 | 61.2 | 89 | 86 | 91.6 | 70 | 66.5 | 58.9 | 62.1 | 79 | activity at 10 µM (MOLT-4): 58.1%; activity at 10 µM (K-562): 57.9%; activity at 10 µM (KM12): 37.3%; activity at 10 µM (HT29): 65.6%; activity at 10 µM (LOX IMVI): 77.3%; activity at 10 µM (NCI-H460): 65.2%; activity at 10 µM (SNB-19): 72%; activity at 10 µM (OVCAR-5): 114%; activity at 10 µM (A498): 68.3%; activity at 10 µM (T-47D): 49.2%; activity at 10 µM (PC-3): 37.5%; activity at 10 µM (BT-549): 71.9%; activity at 10 µM (DU-145): 81.3%; activity at 10 µM (NCI-H522): 16.1%
